Here are results for one compound from patent US11819492B2, “Natural product derivatives for inhibiting cellular necroptosis, ferroptosis and oxytosis” (Institut National de la Sante et de la Recherche Medicale …, priority 2016, dated 2023).

The target in this test is T1, RIPK1 (Homo sapiens, UniProt Q13546).
T1 construct: DNA tag (qPCR read-out); purchased DiscoveRx Corporation, Fremont, USA (assay service)
T1 sequence (Q13546 1-671): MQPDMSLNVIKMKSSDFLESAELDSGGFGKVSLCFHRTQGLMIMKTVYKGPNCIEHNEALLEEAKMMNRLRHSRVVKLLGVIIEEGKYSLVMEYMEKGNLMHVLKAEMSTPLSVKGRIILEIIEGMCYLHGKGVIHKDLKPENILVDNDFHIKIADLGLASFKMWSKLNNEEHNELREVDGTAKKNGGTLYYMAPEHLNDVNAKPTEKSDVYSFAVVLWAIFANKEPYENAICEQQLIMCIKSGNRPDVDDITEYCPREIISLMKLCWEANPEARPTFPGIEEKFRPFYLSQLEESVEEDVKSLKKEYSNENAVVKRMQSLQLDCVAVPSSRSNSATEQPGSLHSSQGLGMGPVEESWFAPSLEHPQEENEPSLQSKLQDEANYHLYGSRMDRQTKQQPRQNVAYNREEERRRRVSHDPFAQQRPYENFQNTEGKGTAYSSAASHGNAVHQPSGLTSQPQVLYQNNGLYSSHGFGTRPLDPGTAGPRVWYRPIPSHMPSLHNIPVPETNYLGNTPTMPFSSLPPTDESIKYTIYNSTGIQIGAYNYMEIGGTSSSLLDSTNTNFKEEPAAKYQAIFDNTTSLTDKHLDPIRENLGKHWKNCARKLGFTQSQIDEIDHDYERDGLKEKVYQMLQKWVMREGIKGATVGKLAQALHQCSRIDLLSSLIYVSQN
The test is described as follows: KINOMEscan Max competition binding assay, RIPK1. Conditions: RIPK1, FIG. 8. As to the method:
This experimental approach quantitatively measures the ability of a compound to compete with an immobilized, active-site directed ligand. […] The ability of compound 1 to compete with the immobilized ligand is measured via quantitative PCR of the DNA tag. The codes reported on the FIG. 8 indicate the subclasses of protein kinases: CMGC for CDKs, MAP kinases, GSK and CDK-like kinases; AGC for Protein kinase A, G, and C families (PKA, PKC, PKG); CAMK for Ca2+/calmodulin-dependent protein kinases; CK1, Cell Kinases 1 (originally known as Casein Kinase 1); STE, STE Kinases (Homologs of yeast STErile kinases); TKL, Tyrosine Kinases-Like; TK, Tyrosine Kinases. Each kinase tested in the assay panel is marked with a circle. The hit kinase reported, RIPK1, is marked with a black circle.

As for `COc1cc(O)c2c(c1)OC(O)(c1ccc(OCc3ccccc3)cc1)CC2=O` (stereo not shown) [compound 1], the “initial amount of kinase still on the affinity matrix after competition” value is listed as 0.15%.
